Measured values published in patent publication US20120202840A1, “Use of Flubendazole and Vinca Alkaloids for Treatment of Hematological Diseases” (priority 2009, published 2012).

Tests used:
bovine tubulin [1] = test: Measurement of tubulin sulfhydryl groups (DTNB); type: biochemical; conditions: flubendazole 100 μM, vinblastine 10 μM
Protocol: A representative figure is shown.
The ability of microtubule target drugs to alter tubulin structure was assessed by measuring the number of reactive cysteine residues using the sulfhydryl reagent 5,5′-Dithio-bis(2-nitrobenzoic acid) (DTNB; Sigma) as previously described^19,29. […] After incubation, DTNB was added (100 μM final concentration) and the absorbance was measured in a 1 cm path length cuvette at 412 nm for 60 min at 37° C. The number of sulfhydryl groups were determined by using a molar extinction coefficient for DTNB of 13 600 (M^−1, cm^−1).^29

[2] = chickens, up to 180 mg/kg daily for 7 days; cited from earlier work
KB-4.0-HTI = test: MTS assay, KB-4.0-HTI (α-tubulin mutant); type: cell-based
Protocol: (§1) Next, whether microtubule inhibition was functionally important for flubendazole's cytotoxicity was determined.
(§2) Leukemia (U937, MDAY, CEM, CEM-VBL) and solid tumor cell lines (PPC-1, HeLa) were cultured in RPMI 1640 medium. The epidermoid carcinoma cell lines KB-3-1 and KB-4.0-HTI^23 were grown in Dulbecco's Modified Eagle Medium. The lung carcinoma cell lines A549 and A549.EpoB40 were grown in RPMI with the latter supplemented with 20% fetal calf serum (FCS), and 40 nM epothilone B.^24 Leukemia cell lines OCI-AML2, CEM, and NB4 and all the myeloma cell lines (OPM2, KMS11, JJN3 LP1, H929, L1, KMS12, KSM18 and OCI My5) were maintained in Iscove's Modified Dulbecco's Medium (IMDM). TEX cells were maintained in IMDM, 15% FCS, 1% penicillin-streptomycin, 2 mM L-glutamine, 20 ng/mL SCF, 2 ng/mL IL-3. Unless otherwise noted, all media were supplemented with 10% FCS, 100 units/mL of streptomycin and 100 μg/mL of penicillin (all from Hyclone, Logan, Utah). Cells were incubated in a humidified air atmosphere containing 5% CO2 at 37° C.
(§3) Cell growth and viability was measured using the 3-(4,5-dimethylthiazol-2-yl)-5-(3-carboxymethoxyphenyl)-2-(4-sulfophenyl)-2H-tetrazolium inner salt (MTS) reduction assay (Promega, Madison, Wis.) according to the manufacture's protocol and as previously described^25. […] Optical density (OD) was measured at 490 nm.

bovine tubulin [3] = test: Site of binding to tubulin (colchicine-tubulin fluorescence); conditions: tubulin 5.0 μM, 100 μM drug 30 min, then colchicine 10 μM 60 min
Protocol: (C) Tubulin (5.0 μM) was incubated for 30 min with 100 μM vinblastine, 100 μM flubendazole, or buffer control. […] A representative figure is shown.
The site of flubendazole binding was determined similar to Gupta et al^19. Bovine tubulin (5.0 μM) was incubated with 100 μM flubendazole, 100 μM vinblastine or buffer control for 30 min at 37° C.

KB-3-1 = test: MTS assay, KB-3-1 wild type; type: cell-based; conditions: Homo sapiens; KB-3-1, MTS assay, 3 replicates
Protocol: as §1, §2, §3

PPC-1 cells = test: Microtubules in cultured cells (confocal microscopy); type: cell-based; conditions: PPC-1, 1.0 μM, 24 hours
Protocol: (D) PPC-1 cells were treated with 1.0 μM flubendazole (i) or control (ii) for 24 h and stained with DAPI and an anti α-tubulin AlexaFluor 488 nm antibody. Images were captured using an Olympus Fluorview confocal microscope at room temperature. Representative confocal micrographs at 40× are shown.
PPC-1 cells (5.0×10^3) were seeded on glass cover slips in a 6 well plate overnight at 37° C. and then treated with 1.0 μM flubendazole or vehicle control for 24 h. Cells were then fixed in 3.7% paraformeldehyde for 15 min at 37° C., permeabilized using 0.1% triton X-100 for 4 min at room temperature, and incubated at 4° C. overnight in a humidified chamber with a blocking solution (0.5% BSA). Cells were then incubated with a primary mouse anti α-tubulin antibody (clone DMIA, 1:300, in 0.5% BSA; Sigma) for 1 hour at 37° C., washed 3 times in PBS and subsequently incubated with a goat anti-mouse IgG, AlexaFluor 488 secondary antibody (1:500, Sigma) for 1 hour in the dark at room temperature. Cells were then washed, stained with 4′,6-diamidino-2-phenylindole (DAPI) and mounted on a microscope slide using Dakocytomation fluorescent mounting media (Dakocytamation, Carpinteria, Calif.). Slides were imaged using the Olympus Fluoview FV1000 Laser Scanning Confocal Microscope (Olympus America Inc., Center Valley, Pa.) at room temperature at 40×.

OPM2 cells = test system: OPM2 cells
Protocol: (C) Sub-lethally irradiated SCID mice were injected subcutaneously with OPM2 cells (n=20; 10 per group). […] Tumor volume and body weight was measured over time. After 17 days, mice were sacrificed and tumors were excised, measured and weighted.
Sub-lethally irradiated SCID mice were injected subcutaneously in the left flank with leukemia OCI-AML2 (2.0×10^6) or myeloma OPM2 (1.0×10^7) cells. Mice were then randomly assigned to receive flubendazole (in 0.9% NaCl and 0.01% tween-80) or vehicle control (0.9% NaCl and 0.01% tween-80) intraperitoneally. […] Tumor volumes (tumor length×width^2×0.5236) were monitored daily using calipers. At the end of the experiment (16-18 days), mice were sacrificed, tumors excised and tumor volume and weight measured. All animal studies were carried out according to the regulations of the Canadian Council on Animal Care and with the approval of the local ethics review board.

CEM-VBL = test: MTS assay, CEM-VBL (Pgp over-expressing); type: cell-based
Protocol: Over-expression of P-glycoprotein (Pgp, MDR1) renders cells resistant to vinca alkaloid microtubule inhibitors.^43 Therefore, the effects of Pgp over-expression on flubendazole's cytotoxicity were tested. CEM-VBL cells over-express Pgp,^44 which was confirmed with a rhodamine dye exclusion assay. CEM wild type and CEM-VBL cells were treated with increasing concentrations of flubendazole or vinblastine and cell viability measured by the MTS assay (Table 1). […] In contrast, CEM-VBL cells over-expressing Pgp were resistant to vinblastine at concentrations greater than 5.0 μM (Table 1).
as §2
Cell growth and viability was measured using the 3-(4,5-dimethylthiazol-2-yl)-5-(3-carboxymethoxyphenyl)-2-(4-sulfophenyl)-2H-tetrazolium inner salt (MTS) reduction assay (Promega, Madison, Wis.) according to the manufacture's protocol and as previously described^25. Cells were seeded in 96 well plates and treated with drug for 72 h. Optical density (OD) was measured at 490 nm.

[4] = OPM2 xenograft, 50 mg/kg daily intraperitoneally for 17 days, vs vehicle, p<0.05

## COC(=O)Nc1nc2ccc(C(=O)c3ccc(F)cc3)cc2[nH]1 [flubendazole]
Bovine tubulin [1]
  reduction in number of reactive cysteines compared to buffer control: 5.2±2.6
[2]
  toxicity: developed anemia and reduction of red cells in the spleen
KB-4.0-HTI; KB-4.0-HTI, MTS assay, 3 replicates
  IC50: 12500 ± 1800 nM
KB-4.0-HTI; ratio of IC50 values of Table 1
  IC50 higher in KB-4.0-HTI than in KB-3-1 wild type cells: 7 fold
Bovine tubulin [3]
  colchicine fluorescence (colchicine binding to tubulin): decreased colchicine fluorescence
KB-3-1
  IC50: 1900 ± 1100 nM
PPC-1 cells
  microtubule architecture in intact cells: disrupts the microtubule architecture
OPM2 cells; [4]
  tumor growth: significantly delayed tumor growth
  tumor weights: reduced tumor weights
OPM2 cells; mouse, in vivo
  weight loss, behavioral changes or gross organ toxicity: no evidence of weight loss, behavioral changes or gross organ toxicity
CEM-VBL; CEM-VBL, 3 replicates
  IC50: 2700 ± 1200 nM
CEM-VBL; Pgp over-expression
  sensitivity of CEM-VBL cells compared to wild type controls: fully sensitive
